Test results: US20040077709A1, “Neuronal death inhibitors” (DAIICHI PHARMACEUTICAL CO., LTD., priority 1999, published 2004)

How the values were obtained:
[1] = test system: EL mice (EL[s]); assay: DNA fragmentation (TdT labeling) in brain sections of EL mice after oral nefiracetam; assay type: in vivo; conditions: EL[s] mice aged 30 weeks, 10 mg/kg oral once a day
From the text: Employed were three groups each constituting 6 mice aged 30 weeks, that is, EL mice (EL[s]) given an epileptogenic stimulus once a week and thus having a low threshold, EL mice (EL[ns]) not given an epileptogenic stimulus and free from epileptic seizure at least during observation and DDY mice as a control. Each group was compared with that consisting of 40 to 50 week old mice in order to omit the influence of aging. A section of 10 μm was fixed to a gelatin-coated sliding glass in a cryostat, followed by permeabilization with 0.1% sodium citrate and 0.1% Triton X-100 at 4° C. for 5 minutes. DNA fragmentation was detected by polymerizing a fluorescein-labeled nucleotide with the 3′-OH ends of the cleaved DNA by using terminal transferase (TdT). Reaction with an anti-fluorescein antibody conjugated with peroxidase (PD) or alkali phosphatase (AP) developed color, thereby enabling detection by an optical microscope. As a negative control, TdT(−) and as a positive control, a sample treated with DNAaseI were employed. Nefiracetam was orally administered to the test group (aged 30 weeks, EL[s]) once (10 mg/kg) a day. While thus controlling the occurrence of epileptic seizure, a relationship between the nefiracetam administration terms (1, 3, 5 and 7 days) and appearing frequency of DNA fragmentation was observed.
As a result, DNA fragmentation was detected from neither DDY mice aged 30 weeks (adult) nor those aged 40 weeks (having an influence of aging) which served as a negative control. In the EL mice (EL[s]) having epileptic seizure, whether they were aged 30 weeks or 40 weeks, DNA fragmentation was recognized from their hippocampus and parietal cortex. In the EL mice (El[ns]) free from epileptic seizure, whether they were aged 30 weeks or 40 weeks, DNA fragmentation was recognized in only a narrower region at a lower frequency than the EL[s]. In their hippocampus, no DNA fragmentation was recognized.
EL mice serve as a model of the region-specific secondary generalized epilepsy. Although having no severe tissue injury, they are known for accelerated production of free radicals in the hippocampus and parietal cortex constituting a partial complex seizure, a rise in NO and site-specific expression of the immediately early genes (c-fos, zif) during an epileptogenicity acquiring procedure.

[2] = test system: male mice; conditions: oral; cited from earlier work
[3] = five days after the administration, FIG. 2
[4] = single administration (one day), FIG. 1

SMILES: Cc1cccc(C)c1NC(=O)CN1CCCC1=O [nefiracetam, 2-oxo-1-pyrrolidinylacetic acid 2,6-dimethylanilide]
- DNA fragmentation in the hippocampus [1, 3]: disappeared
- DNA fragmentation in the parietal cortex [1, 3]: no change
- DNA fragmentation in the hippocampus [1, 4]: recognized
- DNA fragmentation in the parietal cortex [1, 4]: recognized
- acute toxicity [2]: 2,005 mg/kg
